Experimental findings from patent US12662473B2, “Inhibitors for programmed cell necrosis and preparation method therefor and use thereof” (SHANGHAI INSTITUTE OF ORGANIC CHEMISTRY, CHINESE ACADEMY OF …, priority 2019, dated 2026) are described below.

Read-outs that look alike come from different tables or passages of the source. Some results are limits rather than exact numbers.

The EC50 is the concentration that produces a half-maximal response.

Assay [1] has as its system FADD−/− Jurkat cells. The experiment in a line: TNF-induced programmed cell necrosis inhibition, Cell Titer-Glo viability. The class given is cell-based. The note with it: Homo sapiens, Jurkat. In a few lines: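 FADD-deficient Jurkat cells (2.5×10^5/mL) were pretreated 1 h at 37 °C with compound plus Smac (50 nM as added), then stimulated with TNFα (50 ng/mL as added) for 14 h at 37 °C, 5% CO2. Viability was measured as ATP by CellTiter-Glo luminescence, with unstimulated DMSO wells as 100%. EC50 values were derived.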
A general note: Cellular ATP, detected with luciferase, serves as a proxy for viable cell number.

Assay [2] concerns L929 cells. The description is as above. The class given is cell-based, mouse. As to conditions: Mus musculus, read-out: EC50 inhibitory activity on programmed cell necrosis. In a few lines: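 EC50 values come from CellTiter-Glo luminescence (cellular ATP), normalised to unstimulated DMSO wells as 100% viability. Mouse L929 fibroblasts had 1 h compound-plus-Smac pretreatment at 37 °C (Smac added as 500 nM solution), followed by 14 h TNFα challenge (added as 500 ng/mL solution).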

Setting [3] is: 14 h, TNFa + SM164, read-out: EC50 inhibitory activity on programmed cell necrosis.
[4] abbreviates: TNFa, read-out: EC50 inhibitory activity on programmed cell necrosis.
[5] abbreviates: L929, 14 h, L929 cells (mouse), TNFa + SM164.

Take `COc1cc(Cl)ccc1OC(C)(C)C(=O)N1CCCC1c1ccc(Cl)cc1` (centres unmarked) [QY-9-43]: the EC50 came to 1150 nM in assay [1] (setting [3]); 0.16 nM in assay [1] (setting [4]); 21 nM in assay [2] (L929, L929 cells (mouse), TNFa).
In the case of `COc1cc(Cl)ccc1OC(C)(C)C(=O)N1CCC[C@H]1c1ccc(Cl)cc1` [QY-10-1], the EC50 in assay [1] (setting [3]) was over 10000 nM; in assay [1] (setting [4]), over 10000 nM; in assay [2] (setting [5]) it was 3.6 nM; in assay [2] (L929, L929 cells (mouse), TNFa) it was 0.79 nM.
For the compound `CC(=O)Nc1cc(Cl)ccc1OC(C)(C)C(=O)N1CCCC1c1ccc(Cl)cc1` (centres unmarked) [QY-10-92], the EC50 in assay [1] (setting [3]) was over 10000 nM; in assay [1] (setting [4]) it was over 10000 nM; in assay [2] (setting [5]), over 10000 nM; in assay [2] (L929, L929 cells (mouse), TNFa), over 10000 nM.
As to `COc1cc(Cl)ccc1OC(C)(C)C(=O)N1N=CCC1c1ccc(C)cc1` (centres unmarked) [QY-10-96], the EC50 came to 633 nM in assay [1] (setting [3]); 13.4 nM in assay [1] (setting [4]); 6.31 nM in assay [2] (setting [5]); 0.151 nM in assay [2] (L929, L929 cells (mouse), TNFa).
For `COc1cc(Cl)ccc1NC(C)(C)C(=O)N1CCCC1c1ccc(Cl)cc1` (centres unmarked) [QY-10-104], in that order: 794 nM, 106 nM, 66.2 nM and 13.6 nM.
Take `[2H]c1c([2H])c([C@]2([2H])CCCN2C(=O)C(C)(C)Oc2ccc(Cl)cc2OC)c([2H])c([2H])c1C([2H])([2H])[2H]` [QY-11-1]: the EC50 came to 4.05 nM in assay [1] (setting [4]); 2.66 nM in assay [2] (setting [5]); 0.0803 nM in assay [2] (L929, L929 cells (mouse), TNFa).
Take `CC(C)(C(=O)N1CCCC1c1ccc(Cl)cc1)C1N=Nc2ccc(Cl)cc21` (centres unmarked) [QY-11-9A]: the EC50 is over 10000 nM in assay [1] (setting [3]); over 10000 nM in assay [1] (setting [4]); over 10000 nM in assay [2] (setting [5]); 2530 nM in assay [2] (L929, L929 cells (mouse), TNFa).
For the compound `CC(C)(C(=O)N1CCCC1c1ccc(Cl)cc1)n1ncc2cc(Cl)ccc21` (centres unmarked) [QY-11-9B], the EC50 in assay [1] (setting [3]) came out at 3340 nM; in assay [1] (setting [4]), 2830 nM; in assay [2] (setting [5]) it was 3440 nM; in assay [2] (L929, L929 cells (mouse), TNFa) it was 0.00171 nM.
As for `CC(C)(C(=O)N1CCCC1c1ccc(Cl)cc1)n1nnc2ccc(Cl)cc21` (centres unmarked) [QY-11-11A], the EC50 was over 10000 nM in assay [1] (setting [3]); over 10000 nM in assay [1] (setting [4]); 0.0772 nM in assay [2] (setting [5]); 0.0188 nM in assay [2] (L929, L929 cells (mouse), TNFa).
Take `CC(C)(C(=O)N1CCCC1c1ccc(Cl)cc1)n1nnc2cc(Cl)ccc21` (centres unmarked) [QY-11-11B]: the EC50 is over 10000 nM in assay [1] (setting [3]); over 10000 nM in assay [1] (setting [4]); 0.12 nM in assay [2] (setting [5]); 0.0192 nM in assay [2] (L929, L929 cells (mouse), TNFa).
For `CC(C)(C(=O)N1CCCC1c1ccc(Cl)cc1)n1ccc2cc(Cl)ccc21` (centres unmarked) [QY-11-15B], the EC50 in assay [1] (setting [3]) is over 10000 nM; in assay [1] (setting [4]), over 10000 nM; in assay [2] (setting [5]), over 10000 nM; in assay [2] (L929, L929 cells (mouse), TNFa), over 10000 nM.
Consider `CC(C)(C(=O)N1CCCC1c1ccc(Cl)cc1)n1cnc2ccc(Cl)cc21` (centres unmarked) [QY-11-16A], for which the EC50 in assay [1] (setting [3]) was over 10000 nM; in assay [1] (setting [4]), over 10000 nM; in assay [2] (setting [5]), over 10000 nM; in assay [2] (L929, L929 cells (mouse), TNFa) it was over 10000 nM.
As to `CC(C)(C(=O)N1CCCC1c1ccc(Cl)cc1)n1cnc2cc(Cl)ccc21` (centres unmarked) [QY-11-16B], the EC50 was over 10000 nM in assay [1] (setting [3]); over 10000 nM in assay [1] (setting [4]); over 10000 nM in assay [2] (setting [5]); over 10000 nM in assay [2] (L929, L929 cells (mouse), TNFa).
Regarding `CC(C)(Oc1ccc(C#N)cc1)C(=O)N1CCCC1c1ccc(Cl)cc1` (centres unmarked) [QY-11-36], the results for the EC50 in assay [1] (setting [3]), in assay [1] (setting [4]) and in assay [2] (setting [5]) were 885 nM, 137 nM and 99.5 nM, respectively.
Regarding `CC(C)(Oc1ccc2ncsc2c1)C(=O)N1CCCC1c1ccc(Cl)cc1` (centres unmarked) [QY-11-44], the EC50 in assay [1] (setting [3]) came out at 1320 nM; in assay [1] (setting [4]), 212 nM; in assay [2] (setting [5]), 677 nM; in assay [2] (L929, L929 cells (mouse), TNFa), 0.0105 nM.
`CC(C)(Oc1ccc(C#N)cc1F)C(=O)N1CCCC1c1ccc(Cl)cc1` (centres unmarked) [QY-11-45]: the EC50 in assay [1] (setting [3]) was 915 nM; in assay [1] (setting [4]), 139 nM; in assay [2] (setting [5]), 108 nM; in assay [2] (L929, L929 cells (mouse), TNFa), 0.7 nM.
For `COc1cc(C#N)ccc1OC(C)(C)C(=O)N1CCCC1c1ccc(Cl)cc1` (centres unmarked) [QY-12-11] the same measures were 178 nM, 6.72 nM, 16.6 nM and 6.06 nM.
